Results published in article PMC7377962 (Nature chemical biology, 2020).

Target: T1, Mur23 (Streptomyces sp. NRRL 30471, UniProt F2WUD5)
T1 sequence (F2WUD5 1-388): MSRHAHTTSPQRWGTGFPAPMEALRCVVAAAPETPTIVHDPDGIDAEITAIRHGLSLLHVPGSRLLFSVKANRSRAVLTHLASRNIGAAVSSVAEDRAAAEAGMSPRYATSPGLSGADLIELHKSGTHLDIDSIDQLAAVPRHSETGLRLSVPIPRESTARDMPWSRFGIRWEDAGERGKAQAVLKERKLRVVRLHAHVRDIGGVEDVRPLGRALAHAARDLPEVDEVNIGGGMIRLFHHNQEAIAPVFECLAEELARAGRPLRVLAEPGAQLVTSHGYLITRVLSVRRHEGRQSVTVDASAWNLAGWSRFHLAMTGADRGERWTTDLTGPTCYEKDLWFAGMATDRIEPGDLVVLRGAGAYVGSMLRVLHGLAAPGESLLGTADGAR
Assay: co-purification, UV/Vis spectrum
Type: binding
Conditions: bound as purified

SMILES: Cc1ncc(COP(=O)(O)O)c(C=O)c1O [PLP, pyridoxal-5′-phosphate]
- co-purification, UV/Vis spectrum: Mur23 copurified with PLP as evident by the yellow color and the characteristic UV/Vis spectrum
